The compounds below were run against T1, chimeric human H3 receptor (Homo sapiens, UniProt Q9Y5N1) (assay: Chimeric human H3 receptor screening GTP binding assay (inhibition of histamine-stimulated GTP-gamma35S binding, Example 8)). Details: 1 h; assay of Example 8; symbol "!" in column headed Ki; read-out: percent inhibition of agonist-induced GTP-gammaS binding to H3.
T1 construct: rat Galpha-i2 (Gnai2, rat); made in house; host or cells: Sf9 insect cells (baculovirus); P2 membranes
Format: biochemical
Procedure, shortened: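 Sf9 membranes co-expressing chimeric human H3 receptor and heterotrimeric G-protein (35 μg protein) incubated 60 min at room temperature with 4 μM compound, 1 μM histamine and 125 pM GTP-gamma35S in pH 7.4 buffer with 10 μM GDP. Filter-bound radioactivity, nonspecific (10 μM GTP-gammaS) subtracted, reported as % inhibition of histamine signal.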

T1 sequence (Q9Y5N1 with tags, fused parts or gaps): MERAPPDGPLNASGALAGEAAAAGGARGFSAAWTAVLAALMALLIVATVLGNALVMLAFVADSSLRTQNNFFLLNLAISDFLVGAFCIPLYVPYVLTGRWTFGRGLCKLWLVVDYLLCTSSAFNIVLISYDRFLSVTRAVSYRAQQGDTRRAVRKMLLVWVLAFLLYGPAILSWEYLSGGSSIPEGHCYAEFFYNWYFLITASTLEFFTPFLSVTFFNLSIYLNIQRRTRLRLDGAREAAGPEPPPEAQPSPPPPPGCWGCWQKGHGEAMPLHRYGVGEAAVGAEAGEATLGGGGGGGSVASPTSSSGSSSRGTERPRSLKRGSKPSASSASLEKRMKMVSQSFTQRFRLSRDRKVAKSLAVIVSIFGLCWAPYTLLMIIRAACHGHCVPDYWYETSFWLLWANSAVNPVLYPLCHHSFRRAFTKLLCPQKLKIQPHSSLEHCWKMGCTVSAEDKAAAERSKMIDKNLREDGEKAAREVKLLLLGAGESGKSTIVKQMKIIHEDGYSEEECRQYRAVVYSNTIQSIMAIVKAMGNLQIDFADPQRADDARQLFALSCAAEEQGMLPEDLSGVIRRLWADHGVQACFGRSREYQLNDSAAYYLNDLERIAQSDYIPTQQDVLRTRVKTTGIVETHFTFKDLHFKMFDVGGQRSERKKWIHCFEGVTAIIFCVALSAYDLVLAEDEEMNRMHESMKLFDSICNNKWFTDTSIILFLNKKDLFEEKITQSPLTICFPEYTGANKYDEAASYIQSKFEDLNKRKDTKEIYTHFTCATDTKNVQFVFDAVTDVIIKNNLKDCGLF

| inhibition at 4 µM [%] | SMILES |
| --- | --- |
| ≥ 90 | CCC(=O)N1CCc2cnc(N3CCN(C4CCC4)CC3)nc2CC1 [Compound 184, 2-(4-cyclobutylpiperazin-1-yl)-7-propionyl-6,7,8,9-tetrahydro-5H-pyrimido[4,5-d]azepine] |
| ≥ 90 | CC(=O)c1ccc(N2CCc3cnc(N4CCN(C5CCC5)CC4)nc3CC2)nc1 [Compound 185, 1-{6-[2-(4-cyclobutylpiperazin-1-yl)-5,6,8,9-tetrahydro-7H-pyrimido[4,5-d]azepin-7-yl]pyridin-3-yl}ethanone] |
| ≥ 90 | CNC(=O)c1ccc(N2CCc3cnc(N4CCN(C5CCC5)CC4)nc3CC2)nc1 [Compound 186, 6-[2-(4-cyclobutylpiperazin-1-yl)-5,6,8,9-tetrahydro-7H-pyrimido[4,5-d]azepin-7-yl]-N-methylnicotinamide] |
| ≥ 90 | Cc1cccc(C(=O)N2CCc3cnc(N4CCN(C5CCC5)CC4)nc3CC2)c1 [Compound 187, 2-(4-cyclobutylpiperazin-1-yl)-7-(3-methylbenzoyl)-6,7,8,9-tetrahydro-5H-pyrimido[4,5-d]azepine] |
| ≥ 90 | Cc1ccc(C(=O)N2CCc3cnc(N4CCN(C5CCC5)CC4)nc3CC2)cc1 [Compound 188, 2-(4-cyclobutylpiperazin-1-yl)-7-(4-methylbenzoyl)-6,7,8,9-tetrahydro-5H-pyrimido[4,5-d]azepine] |
| ≥ 90 | Cc1ccccc1C(=O)N1CCc2cnc(N3CCN(C4CCC4)CC3)nc2CC1 [Compound 189, 2-(4-cyclobutylpiperazin-1-yl)-7-(2-methylbenzoyl)-6,7,8,9-tetrahydro-5H-pyrimido[4,5-d]azepine] |
| ≥ 90 | COc1cccc(C(=O)N2CCc3cnc(N4CCN(C5CCC5)CC4)nc3CC2)c1 [Compound 190, 2-(4-cyclobutylpiperazin-1-yl)-7-(3-methoxybenzoyl)-6,7,8,9-tetrahydro-5H-pyrimido[4,5-d]azepine] |
| ≥ 90 | COc1ccc(C(=O)N2CCc3cnc(N4CCN(C5CCC5)CC4)nc3CC2)cc1 [Compound 191, 2-(4-cyclobutylpiperazin-1-yl)-7-(4-methoxybenzoyl)-6,7,8,9-tetrahydro-5H-pyrimido[4,5-d]azepine] |
| ≥ 90 | COc1ccccc1C(=O)N1CCc2cnc(N3CCN(C4CCC4)CC3)nc2CC1 [Compound 192, 2-(4-cyclobutylpiperazin-1-yl)-7-(2-methoxybenzoyl)-6,7,8,9-tetrahydro-5H-pyrimido[4,5-d]azepine] |
| ≥ 90 | O=C(c1cccc(F)c1)N1CCc2cnc(N3CCN(C4CCC4)CC3)nc2CC1 [Compound 193, 2-(4-cyclobutylpiperazin-1-yl)-7-(3-fluorobenzoyl)-6,7,8,9-tetrahydro-5H-pyrimido[4,5-d]azepine] |
| ≥ 90 | O=C(c1ccc(F)cc1)N1CCc2cnc(N3CCN(C4CCC4)CC3)nc2CC1 [Compound 194, 2-(4-cyclobutylpiperazin-1-yl)-7-(4-fluorobenzoyl)-6,7,8,9-tetrahydro-5H-pyrimido[4,5-d]azepine] |
| ≥ 90 | O=C(c1ccccc1F)N1CCc2cnc(N3CCN(C4CCC4)CC3)nc2CC1 [Compound 195, 2-(4-cyclobutylpiperazin-1-yl)-7-(2-fluorobenzoyl)-6,7,8,9-tetrahydro-5H-pyrimido[4,5-d]azepine] |
| ≥ 90 | O=C(c1ccco1)N1CCc2cnc(N3CCN(C4CCC4)CC3)nc2CC1 [Compound 196, 2-(4-cyclobutylpiperazin-1-yl)-7-(2-furoyl)-6,7,8,9-tetrahydro-5H-pyrimido[4,5-d]azepine] |
| ≥ 90 | O=C(c1ccoc1)N1CCc2cnc(N3CCN(C4CCC4)CC3)nc2CC1 [Compound 197, 2-(4-cyclobutylpiperazin-1-yl)-7-(3-furoyl)-6,7,8,9-tetrahydro-5H-pyrimido[4,5-d]azepine] |
| ≥ 90 | O=C(c1cccnc1)N1CCc2cnc(N3CCN(C4CCC4)CC3)nc2CC1 [Compound 198, 2-(4-cyclobutylpiperazin-1-yl)-7-(pyridin-3-ylcarbonyl)-6,7,8,9-tetrahydro-5H-pyrimido[4,5-d]azepine] |
| ≥ 90 | O=C(c1ccccn1)N1CCc2cnc(N3CCN(C4CCC4)CC3)nc2CC1 [Compound 199, 2-(4-cyclobutylpiperazin-1-yl)-7-(pyridin-2-ylcarbonyl)-6,7,8,9-tetrahydro-5H-pyrimido[4,5-d]azepine] |

| inhibition at 4 µM [%] | SMILES |
| --- | --- |
| ≥ 90 | O=C(c1ccno1)N1CCc2cnc(N3CCN(C4CCC4)CC3)nc2CC1 [Compound 200, 2-(4-cyclobutylpiperazin-1-yl)-7-(isoxazol-5-ylcarbonyl)-6,7,8,9-tetrahydro-5H-pyrimido[4,5-d]azepine] |
| ≥ 90 | Cc1noc(C)c1C(=O)N1CCc2cnc(N3CCN(C4CCC4)CC3)nc2CC1 [Compound 201, 2-(4-cyclobutylpiperazin-1-yl)-7-[(3,5-dimethylisoxazol-4-yl)carbonyl]-6,7,8,9-tetrahydro-5H-pyrimido[4,5-d]azepine] |
| ≥ 90 | Cc1ncccc1C(=O)N1CCc2cnc(N3CCN(C4CCC4)CC3)nc2CC1 [Compound 202, 2-(4-cyclobutylpiperazin-1-yl)-7-[(2-methylpyridin-3-yl)carbonyl]-6,7,8,9-tetrahydro-5H-pyrimido[4,5-d]azepine] |
| ≥ 90 | Cc1cc(C(=O)N2CCc3cnc(N4CCN(C5CCC5)CC4)nc3CC2)nn1C [Compound 203, 2-(4-cyclobutylpiperazin-1-yl)-7-[(1,5-dimethyl-1H-pyrazol-3-yl)carbonyl]-6,7,8,9-tetrahydro-5H-pyrimido[4,5-d]azepine] |
| ≥ 90 | CCn1nc(C)cc1C(=O)N1CCc2cnc(N3CCN(C4CCC4)CC3)nc2CC1 [Compound 204, 2-(4-cyclobutylpiperazin-1-yl)-7-[(1-ethyl-3-methyl-1H-pyrazol-5-yl)carbonyl]-6,7,8,9-tetrahydro-5H-pyrimido[4,5-d]azepine] |
| ≥ 90 | CC(C)c1ccc(C(=O)N2CCc3cnc(N4CCN(C5CCC5)CC4)nc3CC2)cc1 [Compound 205, 2-(4-cyclobutylpiperazin-1-yl)-7-(4-isopropylbenzoyl)-6,7,8,9-tetrahydro-5H-pyrimido[4,5-d]azepine] |
| ≥ 90 | CCCC(=O)N1CCc2cnc(N3CCN(C4CCC4)CC3)nc2CC1 [Compound 206, 7-butyryl-2-(4-cyclobutylpiperazin-1-yl)-6,7,8,9-tetrahydro-5H-pyrimido[4,5-d]azepine] |
| ≥ 90 | CCCCC(=O)N1CCc2cnc(N3CCN(C4CCC4)CC3)nc2CC1 [Compound 207, 2-(4-cyclobutylpiperazin-1-yl)-7-pentanoyl-6,7,8,9-tetrahydro-5H-pyrimido[4,5-d]azepine] |
| ≥ 90 | CC(C)CC(=O)N1CCc2cnc(N3CCN(C4CCC4)CC3)nc2CC1 [Compound 208, 2-(4-cyclobutylpiperazin-1-yl)-7-(3-methylbutanoyl)-6,7,8,9-tetrahydro-5H-pyrimido[4,5-d]azepine] |
| ≥ 90 | CC(C)CCC(=O)N1CCc2cnc(N3CCN(C4CCC4)CC3)nc2CC1 [Compound 209, 2-(4-cyclobutylpiperazin-1-yl)-7-(4-methylpentanoyl)-6,7,8,9-tetrahydro-5H-pyrimido[4,5-d]azepine] |
| ≥ 90 | O=C(CC1CCCC1)N1CCc2cnc(N3CCN(C4CCC4)CC3)nc2CC1 [Compound 210, 2-(4-cyclobutylpiperazin-1-yl)-7-(cyclopentylacetyl)-6,7,8,9-tetrahydro-5H-pyrimido[4,5-d]azepine] |
| ≥ 90 | O=C(CC1CCCCC1)N1CCc2cnc(N3CCN(C4CCC4)CC3)nc2CC1 [Compound 211, 2-(4-cyclobutylpiperazin-1-yl)-7-(cyclohexylacetyl)-6,7,8,9-tetrahydro-5H-pyrimido[4,5-d]azepine] |
| ≥ 90 | O=C(CCC1CCCC1)N1CCc2cnc(N3CCN(C4CCC4)CC3)nc2CC1 [Compound 212, 2-(4-cyclobutylpiperazin-1-yl)-7-(3-cyclopentylpropanoyl)-6,7,8,9-tetrahydro-5H-pyrimido[4,5-d]azepine] |
| ≥ 90 | O=C(Cc1ccccc1)N1CCc2cnc(N3CCN(C4CCC4)CC3)nc2CC1 [Compound 213, 2-(4-cyclobutylpiperazin-1-yl)-7-(phenylacetyl)-6,7,8,9-tetrahydro-5H-pyrimido[4,5-d]azepine] |
| ≥ 90 | COCCC(=O)N1CCc2cnc(N3CCN(C4CCC4)CC3)nc2CC1 [Compound 214, 2-(4-cyclobutylpiperazin-1-yl)-7-(3-methoxypropanoyl)-6,7,8,9-tetrahydro-5H-pyrimido[4,5-d]azepine] |

Same assay, conditions: symbol ! in Ki; test compound 4 μM, 1 μM histamine; read-out: percent inhibition of agonist-induced GTP-gammaS binding to H3

| inhibition at 4 µM [%] | SMILES |
| --- | --- |
| ≥ 90 | Cc1c(F)cccc1CN1CCc2ncnc(N3CCN(C4CCC4)CC3)c2CC1 [Compound 179, 4-(4-cyclobutylpiperazin-1-yl)-7-(3-fluoro-2-methylbenzyl)-6,7,8,9-tetrahydro-5H-pyrimido[4,5-d]azepine] |
| ≥ 90 | Clc1ccccc1CN1CCc2ncnc(N3CCN(C4CCC4)CC3)c2CC1 [Compound 180, 7-(2-chlorobenzyl)-4-(4-cyclobutylpiperazin-1-yl)-6,7,8,9-tetrahydro-5H-pyrimido[4,5-d]azepine] |
| ≥ 90 | Clc1ccc(CN2CCc3ncnc(N4CCN(C5CCC5)CC4)c3CC2)c(Cl)c1 [Compound 181, 4-(4-cyclobutylpiperazin-1-yl)-7-(2,4-dichlorobenzyl)-6,7,8,9-tetrahydro-5H-pyrimido[4,5-d]azepine] |
| ≥ 90 | c1nc2c(c(N3CCN(C4CCC4)CC3)n1)CCN(Cc1ccc(N3CCCC3)cc1)CC2 [Compound 182, 4-(4-cyclobutylpiperazin-1-yl)-7-(4-pyrrolidin-1-ylbenzyl)-6,7,8,9-tetrahydro-5H-pyrimido[4,5-d]azepine] |
